# Data reported in patent US6632809B2, “Gyrase inhibitors and uses thereof” (Vertex Pharmaceuticals Incorporated, priority 2000, dated 2003).
# Assays:
# [1] = target: DNA gyrase (374 kDa Gyr A2B2 subunit from Staphylococcus aureus) (Staphylococcus aureus, UniProt P0A0K8); assay: Gyrase ATPase Assay; format: biochemical; details: 10 μM concentration, ATPase assay at 30° C., 0.9 mM ATP, average of duplicate values; for inhibition at 10 µM: read-out: Gyrase Inhibitory Activity (percent inhibition)
# Procedure: The ATP hydrolysis activity of DNA gyrase was measure by coupling the production of ADP through pyruvate kinase/lactate dehydrogenase to the oxidation of NADH. This method has been described previously (Tamura and Gellert, 1990, J. Biol. Chem., 265, 21342).
# ATPase assays are carried out at 30° C. in buffered solutions containing 100 mM TRIS pH 7.6, 1.5 mM MgCl2, 50 mM KCl. The coupling system contains (final concentrations) 2.5 mM phosphoenol pyruvate, 200 μM nicotinamide adenine dinucleotide (NADH), 1 mM DTT, […], and 10 ug/ml lactate dehydrogenase. 40 nanomolar enzyme (374 kDa Gyr A2B2 subunit from Staphylococcus aureus) and a DMSO solution of the inhibitor to a final concentration of 4% are added and the reaction mixture is allowed to incubate for 10 minutes at 30° C. The reaction is then started by the addition of ATP to a final concentration of 0.9 mM and the rate of NADH disappearance at 340 nanometers is measured over the course of 10 minutes. The percent inhibition values are determined from rate versus concentration profiles and are reported as the average of duplicate values.
# The compound numbers correspond to the compound numbers in Table 1. Compounds having an activity designated as “A” provided a percent inhibition value below 50 percent; compounds having an activity designated as “B” provided a percent inhibition value between 50 and 75 percent; and compounds having an activity designated as “C” provided a percent inhibition value greater than 75 percent.
# [2] = system: test bacteria; assay: Susceptibility Testing in Liquid Media (MIC assay); format: cell-based; details: broth dilution, MHB, 35° C. overnight (16 to 20 hr), organism not given; for MIC: read-out: MIC (minimal inhibitory concentration) activity level
# Procedure: Susceptibility Testing in Liquid Media
# Compounds of this invention were also tested for antimicrobial activity by susceptibility testing in liquid media. Such assays were performed within the guidelines of the latest NCCLS document governing such practices: “M7-A5 Methods for dilution Antimicrobial Susceptibility Tests for Bacteria that Grow Aerobically; Approved Standard—Fifth Edition (2000)”. Other publications such as “Antibiotics in Laboratory Medicine” (Edited by V. Lorian, Publishers Williams and Wilkins, 1996) provide essential practical techniques in laboratory antibiotic testing. Essentially, several discrete bacterial colonies (3 to 7) from a freshly streaked plate were transferred to an appropriate rich broth medium such as MHB, supplemented where appropriate for the more fastidious organisms. This was grown overnight to high density followed by a 1 or 2-thousand-fold dilution to give an inoculation density of between 5×10^5 and 5×10^6 CFU per mL. Alternatively, the freshly picked colonies can be incubated at 37° C. for about 4 to 8 hrs until the culture equals or exceeds a turbidity of a 0.5 McFarland standard (approximately 1.5×10^8 cells per mL) and diluted to give the same CFU per mL as above. In a more convenient method, the inoculum was prepared using a commercially available mechanical device (the BBL PROMPT System) that involves touching five colonies directly with a wand, containing crosshatch grooves at its bottom, followed by suspension of the bacteria in an appropriate volume of saline. Dilution to the appropriate inoculum cell density was made from this cell suspension. The broth used for testing consists of MHB supplemented with 50 mg per L of Ca^2+ and 25 mg per L of Mg^2+. Standard dilution panels of control antibiotics were made and stored as in the NCCLS standard M7-A5, the dilution range typically being in the 128 μg per mL to 0.015 μg per mL (by 2-fold serial dilution). The test compounds were dissolved and diluted fresh for experimentation on the same day; the same or similar ranges of concentration as above being used. The test compounds and controls were dispensed into a multiwell plate and test bacteria added such that the final inoculation was approximately 5×10^4 CFU per well and the final volume was 100 μL. The plates were incubated at 35° C. overnight (16 to 20 hr) and checked by eye for turbidity or quantitated with a multiwell plate reader. […] Such determinations were also compared to the appropriate tables contained in the above two publications to ensure that the range of antibacterial activity is within the acceptable range for this standardized assay.
# The compound numbers correspond to the compound numbers in Table 1.
# Sequence of DNA gyrase (374 kDa Gyr A2B2 subunit from Staphylococcus aureus) (P0A0K8 whole entry): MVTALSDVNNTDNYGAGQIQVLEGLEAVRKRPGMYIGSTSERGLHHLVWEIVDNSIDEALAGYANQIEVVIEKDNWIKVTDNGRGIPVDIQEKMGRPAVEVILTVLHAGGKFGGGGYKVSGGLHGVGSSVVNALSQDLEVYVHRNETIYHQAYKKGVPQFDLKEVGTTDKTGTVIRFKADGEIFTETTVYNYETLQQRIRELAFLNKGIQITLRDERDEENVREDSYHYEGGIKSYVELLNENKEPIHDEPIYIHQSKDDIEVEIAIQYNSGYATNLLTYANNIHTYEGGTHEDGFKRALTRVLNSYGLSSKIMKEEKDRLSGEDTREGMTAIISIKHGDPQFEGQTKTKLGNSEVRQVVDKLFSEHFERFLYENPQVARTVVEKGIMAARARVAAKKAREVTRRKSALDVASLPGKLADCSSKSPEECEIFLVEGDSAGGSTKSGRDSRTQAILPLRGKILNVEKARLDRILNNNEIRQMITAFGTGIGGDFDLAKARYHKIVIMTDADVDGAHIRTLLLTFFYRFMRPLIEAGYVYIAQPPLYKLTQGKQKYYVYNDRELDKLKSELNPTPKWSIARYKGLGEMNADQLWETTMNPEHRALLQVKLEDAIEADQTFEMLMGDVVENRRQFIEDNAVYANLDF
# Sequence of DNA gyrase (374 kDa Gyr A2B2 subunit from Staphylococcus aureus) (P20831 whole entry, further chain): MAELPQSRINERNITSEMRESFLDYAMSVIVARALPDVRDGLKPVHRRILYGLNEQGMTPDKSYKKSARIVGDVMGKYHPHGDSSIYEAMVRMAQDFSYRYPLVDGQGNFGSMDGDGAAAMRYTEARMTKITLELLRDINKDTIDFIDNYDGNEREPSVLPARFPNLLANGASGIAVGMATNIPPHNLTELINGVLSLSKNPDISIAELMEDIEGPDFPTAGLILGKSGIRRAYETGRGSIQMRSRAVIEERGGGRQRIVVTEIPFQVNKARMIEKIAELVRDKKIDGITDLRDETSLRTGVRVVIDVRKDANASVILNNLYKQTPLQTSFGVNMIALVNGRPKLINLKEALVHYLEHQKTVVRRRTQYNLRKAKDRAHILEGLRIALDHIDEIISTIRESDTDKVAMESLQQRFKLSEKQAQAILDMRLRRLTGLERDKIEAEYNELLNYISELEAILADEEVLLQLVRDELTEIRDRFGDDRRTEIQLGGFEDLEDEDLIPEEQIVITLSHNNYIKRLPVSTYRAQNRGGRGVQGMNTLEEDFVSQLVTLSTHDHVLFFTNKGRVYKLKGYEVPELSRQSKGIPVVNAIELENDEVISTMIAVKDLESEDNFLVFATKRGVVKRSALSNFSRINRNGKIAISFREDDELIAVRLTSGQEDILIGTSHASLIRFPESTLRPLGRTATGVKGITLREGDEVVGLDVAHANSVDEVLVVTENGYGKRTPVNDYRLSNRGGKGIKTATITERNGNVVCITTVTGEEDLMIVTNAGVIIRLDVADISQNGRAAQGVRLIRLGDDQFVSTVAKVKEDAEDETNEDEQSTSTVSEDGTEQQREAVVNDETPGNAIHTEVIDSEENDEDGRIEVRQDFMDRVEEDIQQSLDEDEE
Compound,inhibition at 10 µM [1],MIC [2],MIC (minimal inhibitory concentration) activity level [2],Gyrase Inhibitory Activity (percent inhibition) [1]
CCNC(=O)Nc1nc2cc(-c3cnc(NC(C)COC)nc3)cc(C)c2[nH]1 (stereo not shown) [Ia-141],> 75%,< 10 µg/mL,–,–
CCNC(=O)Nc1nc2cc(-c3ccc(CNS(C)(=O)=O)cc3)ccc2[nH]1 [Ia-138],> 75%,> 40 µg/mL,–,–
CSc1ncc(-c2ccc3[nH]c(NC(=O)NC(C)C)nc3c2)cn1 [Ia-116],50 to 75%,> 40 µg/mL,–,–
CCNC(=O)Nc1nc2cc(-c3ccc(N4CCCCC4)nc3)ccc2[nH]1 [Ia-175],> 75%,> 40 µg/mL,–,–
"CCNC(=O)Nc1nc2cc(-n3cnc(C(=O)OC)c3)ccc2[nH]1 [Ia-156, 1-[2-(3-Ethyl-ureido)-3H-benzoimidazol-5-yl]-1H-imiazole-4-carboxylic acid methyl ester]",> 75%,10 to 40 µg/mL,–,–
CCNC(=O)Nc1nc2cc(-c3cccnc3)c(N3CCCC3)cc2[nH]1 [Ia-180],> 75%,10 to 40 µg/mL,–,–
CCNC(=O)Nc1nc2cc(-c3ccccc3O)ccc2[nH]1 [Ia-165],> 75%,10 to 40 µg/mL,–,–
CCNC(=O)Nc1nc2cc(-c3ccc(CNS(C)(=O)=O)nc3)ccc2[nH]1 [Ia-154],> 75%,> 40 µg/mL,–,–
CCNC(=O)Nc1nc2nc(N3CCC(N)C3)ccc2[nH]1 (stereo not shown) [Ia-198],–,10 to 40 µg/mL,–,–
CCNC(=O)Nc1nc2cc(-c3cccnc3)c(C)c(C)c2[nH]1 [Ia-142],> 75%,< 10 µg/mL,–,–
CCNC(=O)Nc1nc2cc(-c3cnc(SC)nc3)ccc2[nH]1 [Ia-92],> 75%,< 10 µg/mL,–,–
CCNC(=O)Nc1nc2cc(-c3ccc(CN)nc3)ccc2[nH]1 [Ia-144],> 75%,10 to 40 µg/mL,–,–
CCNC(=O)Nc1nc2cc(-c3ccc(N4CCCC4)nc3)ccc2[nH]1 [Ia-177],> 75%,> 40 µg/mL,–,–
CCNC(=O)Nc1nc2cc(-n3cc(C(=O)O)c4ncccc43)ccc2[nH]1 [Ia-196],–,10 to 40 µg/mL,–,–
CCNC(=O)Nc1nc2cc(-c3cccnc3)c(OC)cc2[nH]1 [Ia-42],> 75%,10 to 40 µg/mL,–,–
CCNC(=O)Nc1nc2cc(-c3ccc(CNC(=O)OC(C)(C)C)nc3)ccc2[nH]1 [Ia-148],> 75%,10 to 40 µg/mL,–,–
CCCNC(=O)Nc1nc2cc(-c3cccnc3)ccc2[nH]1 [Ia-119],> 75%,> 40 µg/mL,–,–
CCNC(=O)Nc1nc2cc(-c3cccc(F)c3F)ccc2[nH]1 [Ia-152],> 75%,10 to 40 µg/mL,–,–
CCNC(=O)Nc1nc2cc(-c3cnc(NCc4cccnc4)nc3)ccc2[nH]1 [Ia-98],> 75%,10 to 40 µg/mL,–,–

Compound,inhibition at 10 µM [1],MIC [2],MIC (minimal inhibitory concentration) activity level [2],Gyrase Inhibitory Activity (percent inhibition) [1]
CCNC(=O)Nc1nc2cc(-c3cccnc3)cc(OCc3ccccc3)c2[nH]1 [Ia-168],> 75%,< 10 µg/mL,–,–
CCNC(=O)Nc1nc2cc(-c3cccnc3)cc(O)c2[nH]1 [Ia-167],> 75%,–,C (provided an MIC of greater than 40 μg/mL),–
CCNC(=O)Nc1nc2cc(-c3cccnc3)ccc2[nH]1 [Ia-118],> 75%,< 10 µg/mL,–,–
CCNC(=O)Nc1nc2cc(-c3cccnc3)c(N3CCCCC3)cc2[nH]1 [Ia-178],> 75%,< 10 µg/mL,–,–
CCOC(=O)Nc1nc2cc(-c3cncc(NC(C)=O)c3)ccc2[nH]1 [Ia-122],> 75%,> 40 µg/mL,–,–
CCNC(=O)Nc1nc2cc(-n3cc(C(=O)O)cn3)ccc2[nH]1 [Ia-162],> 75%,> 40 µg/mL,–,–
CCNC(=O)Nc1nc2cc(-c3ccc(OCCOCC)nc3)ccc2[nH]1 [Ia-197],–,10 to 40 µg/mL,–,–
CCNC(=O)Nc1nc2cc(-c3cccc(=O)[nH]3)ccc2[nH]1 [Ia-158],> 75%,> 40 µg/mL,–,–
CCNC(=O)Nc1nc2cc(-c3cccnc3)c(N3CCOCC3)cc2[nH]1 [Ia-164],> 75%,> 40 µg/mL,–,–
CCNC(=O)Nc1nc2cc(-c3ccc(CNC(C)=O)nc3)ccc2[nH]1 [Ia-145],> 75%,10 to 40 µg/mL,–,–
CCNC(=O)Nc1nc2cc(-c3ccc(CNC(C)=O)cc3)ccc2[nH]1 [Ia-139],> 75%,> 40 µg/mL,–,–
CCNC(=O)Nc1nc2cc(-c3cccnc3)c(OCCOC)c(C)c2[nH]1 [Ia-149],> 75%,> 40 µg/mL,–,–
CCNC(=O)Nc1nc2cc(-c3cnc(OC)nc3)c(OC)cc2[nH]1 [Ia-112],> 75%,< 10 µg/mL,–,–
CCNC(=O)Nc1nc2cc(-c3cccc(F)c3)ccc2[nH]1 [Ia-155],< 50%,–,–,–
CCNC(=O)Nc1nc2cc(N3CCOCC3)ccc2[nH]1 [Ia-176],< 50%,–,–,–
CCOC(=O)Nc1nc2cc(-c3ccccc3)cc(Br)c2[nH]1 [Ia-19],> 75%,–,–,–
CCNC(=O)Nc1nc2cc(-c3cccnc3)cc(OC)c2[nH]1 [Ia-108],> 75%,–,–,–
CCNC(=S)Nc1nc2cc(-c3ccccc3)ccc2[nH]1 [Ia-36],–,–,–,A (provided a percent inhibition value below 50 percent)
CCNC(=O)Nc1nc2cc(-c3cnc(N4CCCC4COC)nc3)ccc2[nH]1 (stereo not shown) [Ia-130],> 75%,–,–,–

Compound,inhibition at 10 µM [1],MIC [2],MIC (minimal inhibitory concentration) activity level [2],Gyrase Inhibitory Activity (percent inhibition) [1]
CCNC(=O)Nc1nc2cc(-c3cnc(NC4CC4)nc3)ccc2[nH]1 [Ia-44],> 75%,–,–,–
CCOC(=O)Nc1nc2cc(-c3cccc(OCC)c3)ccc2[nH]1 [Ia-15],50 to 75%,–,–,–
CCOC(=O)Nc1nc2cc(-c3cnc(N4CCN(C(=O)OC(C)(C)C)CC4)nc3)ccc2[nH]1 [Ia-69],50 to 75%,–,–,–
CCNC(=O)Nc1nc2cc(-c3cnc(NCc4ccc(F)c(Cl)c4)nc3)ccc2[nH]1 [Ia-61],> 75%,–,–,–
CCOC(=O)Nc1nc2cc(-c3cncnc3)ccc2[nH]1 [Ia-21],> 75%,–,–,–
CCOC(=O)Nc1nc2cc(-c3cnc(N4CCN(S(C)(=O)=O)CC4)nc3)ccc2[nH]1 [Ia-91],< 50%,–,–,–
CCOC(=O)Nc1nc2cc(-c3ccccc3)ccc2[nH]1 [Ia-1],50 to 75%,–,–,–
CCOC(=O)Nc1nc2cc(-c3ccc4[nH]c(NC(=O)OCC)nc4c3)ccc2[nH]1 [Ia-67],> 75%,–,–,–
CCOC(=O)Nc1nc2cc(-c3cnc(OC)nc3OC)ccc2[nH]1 [Ia-16],> 75%,–,–,–
CCNC(=O)Nc1nc2cc(-c3cccnc3)cc(O)c2[nH]1 [Ia-169],–,–,B (provided an MIC of between 10 and 40 μg/mL),–
CCNC(=O)Nc1nc2cc(-c3cnc(NCc4ccc(OC)cc4)nc3)ccc2[nH]1 [Ia-49],> 75%,–,–,–
CCNC(=O)Nc1nc2cc(-c3ccccc3)cc(Br)c2[nH]1 [Ia-89],> 75%,–,–,–
CCNC(=O)Nc1nc2cc(-c3cnc(N4CCN(S(C)(=O)=O)CC4)nc3)ccc2[nH]1 [Ia-124],50 to 75%,–,–,–
CCNC(=O)Nc1nc2cc(-c3cnc(NCCCOC)nc3)ccc2[nH]1 [Ia-102],> 75%,–,–,–
CCNC(=O)Nc1nc2cc(-c3cnc(N4CCN(C(C)=O)CC4)nc3)ccc2[nH]1 [Ia-113],> 75%,–,–,–
CCOC(=O)Nc1ncc(-c2ccc3[nH]c(NC(=O)OCC)nc3c2)cn1 [Ia-77],> 75%,–,–,–
CCNC(=O)Nc1nc2cc(-c3cnc(N4CCC(O)C4)nc3)ccc2[nH]1 (stereo not shown) [Ia-129],> 75%,–,–,–
CCNC(=O)Nc1nc2cc(-c3cccnc3)cc(Cl)c2[nH]1 [Ia-134],> 75%,–,–,–
